# Data from the NIST ThermoML archive (doi:10.1021/acs.jced.6b00219).
# ± gives the expanded uncertainty stated by the source.
# Columns and labels:
# [1] = Crystal; DTA
# [2] = Molar enthalpy of transition or fusion; conditions: Crystal; DSC
smiles,measurement,setting,value
"O=[N+]([O-])c1cn[nH]c1[N+](=O)[O-] [3,4-dinitro-1H-pyrazole]",Normal melting temperature,[1],87.83 ± 1.1 °C
same,Molar enthalpy of transition or fusion,[2],2.81 ± 0.203 kcal/mol
